Here are results for 14 compounds from ChEMBL document CHEMBL5136997, “Sulfur-Containing Phenolic Compounds from the Cave Soil-Derived Aspergillus fumigatus GZWMJZ-152” (J Nat Prod, 2022).

Common to all, as to assay type: functional
Test [1] in a line: Antioxidant activity assessed as DPPH radical scavenging activity incubated for 30 mins. A general note: DPPH is a stable violet radical that fades when it is reduced.
Test [2] is described as follows: Antioxidant activity assessed as AAPH radical scavenging activity at 12.5 uM ORAC assay.
In the next test the test system is PC-12. Description: Cytoprotective activity against H2O2-induced oxidative injury in rat PC-12 cells assessed as cell viability at 10 uM incubated for 24 hrs (reference value: 46.91 +/- 3.74%). Particulars: for viability at 10 µM: read-out: Activity.

On to `COC(=O)c1c(C(=O)c2c(O)cc(C)cc2OC)c(OC)cc(O)c1[S@@+](C)[O-]`, for which the half-maximal inhibitory concentration (IC50) (commonly the concentration at which inhibition is half-maximal) in test [1] was > 100 µM. The Activity (umolequiv/umol) in test [2] is 1.76.

Turning to `COC(=O)c1c(C(=O)c2c(O)cc(C)cc2OC)c(OC)cc(O)c1[S@+](C)[O-]`, the half-inhibitory concentration (IC50) in test [1] was > 100 µM. The Activity (umolequiv/umol) in test [2] was 1.59.

For `COC1=CC(=O)C(C)=C(O)C1=O`, the IC50 in test [1] was determined as 17.3 µM. In addition, in test [2], the Activity (umolequiv/umol) was 0.67. Also, the viability at 10 µM with PC-12 was 50%.

`COC(=O)c1c2c(cc(OC)c1C(=O)c1c(O)cc(C)cc1OC)OC(OC)CS2` (racemic): in test [1], the IC50 was > 100 µM. Moreover, the Activity (umolequiv/umol) in test [2] was 0.03. In addition, in the test with PC-12, the viability at 10 µM came out at 63.2%.

As to `COc1c(O)c(O)c(C)c2scnc12`, the IC50 in test [1] was 3.45 µM. Further, the Activity (umolequiv/umol) in test [2] was 0.73. In the test on PC-12, the viability at 10 µM was determined as 47.9%.

`O=C1O[C@H]([C@@H](O)CO)C(O)=C1O` [ASCORBIC ACID]: the IC50 in test [1] came to 11.9 µM.

As for `COC(=O)CSc1c(O)cc(OC)c(C(=O)c2c(O)cc(C)cc2OC)c1C(=O)OC`, the IC50 in test [1] is > 100 µM. In test [2], the Activity (umolequiv/umol) amounted to 1.65. Further, in the test with PC-12, the viability at 10 µM was determined as 49.1%.

Turning to `COC(=O)c1c2c(cc(OC)c1C(=O)c1c(O)cc(C)cc1OC)O[C@@H](OC)CS2`, the 50% inhibitory concentration (IC50) in test [1] is > 100 µM. Further, the Activity (umolequiv/umol) in test [2] is 0.08.

As to `COC(=O)c1cc(O)cc(OC)c1C(=O)c1c(O)cc(C)cc1OC`, the half-maximal inhibitory concentration (IC50) in test [1] is > 100 µM. In test [2], the Activity (umolequiv/umol) turned out to be 1.55. Besides, the viability at 10 µM in the test with PC-12 stood at 51.7%.

Turning to `COc1c(O)c(O)c(C)c2sc(CO)nc12`, the 50% inhibitory concentration (IC50) in test [1] is 23.7 µM. For the same compound, the Activity (umolequiv/umol) in test [2] was found to be 0.66. Further, in the test on PC-12, the viability at 10 µM was determined as 43.2%.

On to `COC(=O)c1c2c(cc(OC)c1C(=O)c1c(O)cc(C)cc1OC)O[C@H](OC)CS2`, for which the IC50 in test [1] is > 100 µM. Moreover, the Activity (umolequiv/umol) in test [2] was determined as 0.02.

In the case of VITAMIN E, the Activity with PC-12 was 57.7%.

Take `COC(=O)c1c(SC[C@H]2NC(=O)CNC2=O)c(O)cc(OC)c1C(=O)c1c(O)cc(C)cc1OC`: in test [1], the IC50 is > 100 µM. Besides, the Activity (umolequiv/umol) in test [2] is 0.78. Besides, in the test on PC-12, the viability at 10 µM was determined as 54.2%.

With `COC(=O)c1c(C(=O)c2c(O)cc(C)cc2OC)c(OC)cc(O)c1[S+](C)[O-]` (racemic), the IC50 in test [1] is > 100 µM. The Activity (umolequiv/umol) in test [2] is 1.73. Further, in the test on PC-12, the viability at 10 µM came out at 62.4%.
